Measurements reported in patent publication US7705030B2, “Amino-5-(5-membered)hetero-arylimidazolone compounds and the use thereof for β-secretase modulation” (Wyeth LLC, priority 2005, dated 2010).
Where a name gives a salt, the structure may show the parent alone.

Legend:
[1] = target: human BACE1 (Homo sapiens, UniProt P56817); experiment: Fluorescent kinetic assay: Evaluation of BACE-1 Binding Affinity of Test Compounds; assay type: biochemical; conditions: 10 nM enzyme, 25 μM substrate WABC-6, 50 mM Na-Acetate pH 4.5, room temperature
Experimental: Evaluation of BACE-1 Binding Affinity of Test Compounds
Fluorescent Kinetic Assays
Final Assay Conditions: 10 nM human BACE1 (or 10 nM Murine BACE1, 1.5 nM human BACE2), 25 μM substrate (WABC-6, MW 1549.6, from AnaSpec), Buffer: 50 mM Na-Acetate, pH 4.5, 0.05% CHAPS, 25% PBS, room temperature. Na-Acetate was from Aldrich, Cat.# 24, 124-5, CHAPS was from Research Organics, Cat. # 1304C 1×, PBS was from Mediatech (Cellgro), Cat# 21-031-CV, peptide substrate Abz[…]pa was from AnaSpec, Peptide Name: WABC-6 Determination of stock substrate (Abz[…]pa) concentration: ˜25 mM stock solution is made in DMSO using the peptide weight and MW, and diluted to ˜25 μM (1:1000) in 1×PBS. Concentration is determined by absorbance at 354 nm using an extinction coefficient ε of 18172 M^−1 cm^−1, the concentration of stock substrate is corrected, and the substrate stock stored in small aliquots in −80° C. [Substrate Stock]=ABS^354 nm*10^6/18172 (in […]) The extinction coefficient ε^354 nm was adapted from TACE peptide substrate, which had the same quencher-fluorophore pair.
Determination of Stock Enzyme Concentration: the stock concentration of each enzyme is determined by absorbance at 280 nm using an ε of 64150 M^−1 cm^−1 for hBACE1 and MuBACE1, 62870 M^−1 cm^−1 for hBACE2 in 6 M Guanidinium Hydrochloride (from Research Organics, Cat. # 5134G-2), pH ˜6. The extinction coefficient ε^280 nm for each enzyme was calculated based on known amino acid composition and published extinction coefficients for Trp ([…]) and Tyr ([…]) residues (Anal. Biochem. 182, 319-326).
Dilution and mixing steps: total reaction volume: 100 μL
2× inhibitor dilutions in buffer A(66.7 mM Na-Acetate, pH 4.5, 0.0667% CHAPS) were prepared,
4× enzyme dilution in buffer A(66.7 mM Na-Acetate, pH 4.5, 0.0667% CHAPS) were prepared,
100 μM substrate dilution in 1×PBS was prepared, and
50 μL 2× Inhibitor, 25 μL 100 μM substrate are added to each well of 96-well plate (from DYNEX Technologies, VWR #: 11311-046), immediately followed by 25 μL 4× enzyme (added to the inhibitor and substrate mix), and the fluorescence readings are initiated.
Fluorescence Readings: Readings at λex 320 nm and λem 420 nm are taken every 40 sec for 30 min at room temperature and the linear slope for substrate cleavage rate (vi) determined.
Testing at least 10 different inhibitor concentrations is preferred.

Sequence of human BACE1 (P56817 46-501): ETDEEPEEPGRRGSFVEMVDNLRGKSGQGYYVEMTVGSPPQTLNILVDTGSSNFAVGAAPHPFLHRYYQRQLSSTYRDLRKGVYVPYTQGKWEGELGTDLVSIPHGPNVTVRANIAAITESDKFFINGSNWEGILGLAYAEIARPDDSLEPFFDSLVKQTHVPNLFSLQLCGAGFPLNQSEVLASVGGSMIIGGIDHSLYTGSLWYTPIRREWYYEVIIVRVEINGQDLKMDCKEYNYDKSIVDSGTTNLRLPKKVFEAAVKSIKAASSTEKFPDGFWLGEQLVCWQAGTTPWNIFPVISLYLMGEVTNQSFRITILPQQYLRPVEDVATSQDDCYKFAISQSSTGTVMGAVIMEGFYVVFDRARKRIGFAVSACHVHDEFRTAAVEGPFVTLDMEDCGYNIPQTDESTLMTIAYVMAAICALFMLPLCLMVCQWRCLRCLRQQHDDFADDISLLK

Compound | melting point | IC50 [1]
CCn1cc(C2(c3cccc(-c4cccnc4F)c3)N=C(N)N(C)C2=O)cc1/C=N/OC (stereo not shown) (as salt: hydrochloride) [Example 241, 4-[2-Amino-4-[3-(2-fluoropyridin-3-yl)phenyl]-1-methyl-5-oxo-4,5-dihydro-1H-imidazol-4-yl]-1-ethyl-1H-pyrrole-2-carbaldehyde O-methyloxime hydrochloride] | 190 to 193 °C | –
Cc1c(C2(c3cccc(-c4cccnc4F)c3)N=C(N)N(C)C2=O)cnn1CC(F)(F)F (stereo not shown) [Example 2, 2-Amino-5-[3-(2-fluoropyridin-3-yl)phenyl]-3-methyl-5-[5-methyl-1-(2,2,2-trifluoroethyl)-1H-pyrazol-4-yl]-3,5-dihydro-4H-imidazol-4-one] | 235 to 238 °C | 110 to 1000 nM
CC(C)Cn1cc(C2(c3cccc(-c4cccnc4F)c3)N=C(N)N(C)C2=O)cn1 (stereo not shown) [Example 3, 2-Amino-5-[3-(2-fluoropyridin-3-yl)phenyl]-5-(1-isobutyl-1H-pyrazol-4-yl)-3-methyl-3,5-dihydro-4H-imidazol-4-one] | 94 to 98 °C | 10 to 100 nM
CCCCn1cc(C2(c3cccc(-c4cccnc4F)c3)N=C(N)N(C)C2=O)cn1 (stereo not shown) [Example 4, 2-Amino-5-(1-butyl-1H-pyrazol-4-yl)-5-[3-(2-fluoropyridin-3-VI)phenyl]-3-methyl-3,5-dihydro-4H-imidazol-4-one] | 88 to 92 °C | 10 to 100 nM
CC(C)Cn1cc(C2(c3cccc(-c4cncnc4)c3)N=C(N)N(C)C2=O)cn1 (stereo not shown) [Example 5, 2-Amino-5-(1-isobutyl-1H-pyrazol-4-yl)-3-methyl-5-(3-pyrimidin-5-ylphenyl)-3,5-dihydro-4H-imidazol-4-one] | 118 to 122 °C | 10 to 100 nM
CCCCn1cc(C2(c3cccc(-c4cncnc4)c3)N=C(N)N(C)C2=O)cn1 (stereo not shown) [Example 6, 2-Amino-5-(1-butyl-1H-pyrazol-4-yl)-3-methyl-5-(3-pyrimidin-5-ylphenyl)-3,5-dihydro-4H-imidazol-4-one] | 94 to 98 °C | 10 to 100 nM
CN1C(=O)C(c2ccc(F)c(-c3cccnc3F)c2)(c2cnn(CC(F)(F)F)c2)N=C1N (stereo not shown) [Example 7, 2-Amino-5-[4-fluoro-3-(2-fluoropyridin-3-yl)phenyl]-3-methyl-5-[1-(2,2,2-trifluoroethyl)-1H-pyrazol-4-yl]-3,5-dihydro-4H-imidazol-4-one] | > 225 °C | 110 to 1000 nM
CN1C(=O)C(c2ccc(F)c(-c3cncnc3)c2)(c2cnn(CC(F)(F)F)c2)N=C1N (stereo not shown) [Example 8, 2-Amino-5-(4-fluoro-3-pyrimidin-5-ylphenyl)-3-methyl-5-[1-(2,2,2-trifluoroethyl)-1H-pyrazol-4-yl]-3,5-dihydro-4H-imidazol-4-one] | 115 to 117 °C | 110 to 1000 nM
CCn1cc(C2(c3ccc(F)c(-c4cncnc4)c3)N=C(N)N(C)C2=O)cn1 (stereo not shown) [Example 9, 2-Amino-5-(1-ethyl-1H-pyrazol-4-yl)-5-(4-fluoro-3-pyrimidin-5-ylphenyl)-3-methyl-3,5-dihydro-4H-imidazol-4-one] | 120 to 121 °C | 10 to 100 nM
CCn1cc(C2(c3ccc(F)c(-c4cccnc4F)c3)N=C(N)N(C)C2=O)cn1 (stereo not shown) [Example 10, 2-Amino-5-(1-ethyl-1H-pyrazol-4-yl)-5-[4-fluoro-3-(2-fluoropyridin-3-yl)phenyl]-3-methyl-3,5-dihydro-4H-imidazol-4-one] | 84 to 85 °C | 10 to 100 nM
Cc1nn(CC(F)(F)F)cc1C1(c2cccc(-c3cccnc3F)c2)N=C(N)N(C)C1=O (stereo not shown) [Example 11, 2-Amino-5-[3-(2-fluoropyridin-3-yl)phenyl]-3-methyl-5-[3-methyl-1-(2,2,2-trifluoroethyl)-1H-pyrazol-4-yl]-3,5-dihydro-4H-imidazol-4-one] | 128 to 132 °C | 110 to 1000 nM
Cc1sccc1C1(c2cccc(-c3cncnc3)c2)N=C(N)N(C)C1=O (stereo not shown) [Example 27, 2-Amino-5-(2-methylthien-3-yl)-3-methyl-5-(3-pyrimidin-5-ylphenyl)-3,5-dihydro-4H-imidazol-4-one] | 154 to 159 °C | 110 to 1000 nM
CCc1cc(C2(c3cccc(-c4cncnc4)c3)N=C(N)N(C)C2=O)cs1 (stereo not shown) [Example 29] | 144 to 146 °C | 10 to 100 nM
CCc1cc(C2(c3cccc(-c4cncnc4)c3)N=C(N)N(C)C2=O)c(C)s1 (stereo not shown) [Example 31] | 128 to 134 °C | 110 to 1000 nM
CN1C(=O)C(c2cccc(-c3cncnc3)c2)(c2csc(Cl)c2)N=C1N (stereo not shown) [Example 32] | 236 to 240 °C | 10 to 100 nM
CN1C(=O)C(c2ccsc2)(c2cccc(-c3cnccn3)c2)N=C1N (stereo not shown) [Example 33] | 223 °C | 10 to 100 nM
CCn1ccc(C2(c3cccc(Br)c3)N=C(N)N(C)C2=O)c1 (stereo not shown) [Example 50, 2-Amino-5-(3-bromophenyl)-5-(1-ethyl-1H-pyrrol-3-yl)-3-methyl-3,5-dihydro-4H-imidazol-4-one] | 138 to 140 °C | –
CN1C(=O)C(c2cccc(Br)c2)(c2ccn(CC(F)(F)F)c2)N=C1N (stereo not shown) [Example 51, 2-Amino-5-(3-bromophenyl)-3-methyl-5-[1-(2,2,2-trifluoroethyl)-1H-pyrrol-3-yl]-3,5-dihydro-4H-imidazol-4-one] | 74 to 76 °C | –
CN1C(=O)C(c2cccc(Br)c2)(c2cnn(CC(F)(F)F)c2)N=C1N (stereo not shown) [Example 81, 2-amino-5-(3-bromophenyl)-3-methyl-5-[1-(2,2,2-trifluoroethyl)-1H-pyrazol-4-yl]-3,5-dihydro-4H-imidazol-4-one] | 80 to 82 °C | –
CC(C)n1cc(C2(c3ccc(F)c(Br)c3)N=C(N)N(C)C2=O)cn1 (stereo not shown) [Example 95, 2-amino-5-(3-bromo-4-fluorophenyl)-5-(1-isopropyl-1H-pyrazol-4-yl)-3-methyl-3,5-dihydro-4H-imidazol-4-one] | 80 to 82 °C | –
CC(C)n1cc(C2(c3ccc(F)c(-c4cncnc4)c3)N=C(N)N(C)C2=O)cn1 (stereo not shown) [Example 96] | 110 to 113 °C | –
CCC1(c2cc(C3(c4cccc(-c5cccnc5F)c4)N=C(N)N(C)C3=O)cs2)OCCO1 (stereo not shown) [Example 113] | 93 to 103 °C | –
CCC(=O)c1cc(C2(c3cccc(-c4cccnc4F)c3)N=C(N)N(C)C2=O)cs1 (stereo not shown) [Example 115, 2-Amino-5-[3-(2-fluoro-pyridin-3-yl)-phenyl]-3-methyl-5-(5-propionyl-thiophen-3-yl)-3,5-dihydro-imidazol-4-one] | 98 to 112 °C | –
CCC(=O)c1cc([C@]2(c3cccc(-c4cccnc4F)c3)N=C(N)N(C)C2=O)cn1CC(F)(F)F [Example 224A, (5S)-2-amino-5-[3-(2-fluoropyridin-3-yl)phenyl]-3-methyl-5-[5-propionyl-1-(2,2,2-trifluoroethyl)-1H-pyrrol-3-yl]-3,5-dihydro-4H-imidazol-4-one] | – | 10 to 100 nM
CCC(=O)c1cc([C@@]2(c3cccc(-c4cccnc4F)c3)N=C(N)N(C)C2=O)cn1CC(F)(F)F [Example 224B, (5R)-2-amino-5-[3-(2-fluoropyridin-3-yl)phenyl]-3-methyl-5-[5-propionyl-1-(2,2,2-trifluoroethyl)-1H-pyrrol-3-yl]-3,5-dihydro-4H-imidazol-4-one] | – | > 1000 nM
CCn1cc(C2(c3cccc(-c4cccnc4F)c3)N=C(N)N(C)C2=O)cc1/C=N/OC (stereo not shown) [Example 241, 4-[2-Amino-4-[3-(2-fluoropyridin-3-yl)phenyl]-1-methyl-5-oxo-4,5-dihydro-1H-imidazol-4-yl]-1-ethyl-1H-pyrrole-2-carbaldehyde O-methyloxime hydrochloride] | – | 10 to 100 nM
CCn1cc([C@]2(c3cccc(-c4cccnc4F)c3)N=C(N)N(C)C2=O)cc1C=O [Example 247, 4-{(4S)-2-Amino-4-[3-(2-fluoropyridin-3-yl)phenyl]-1-methyl-5-oxo-4,5-dihydro-1H-imidazol-4-yl}-1-ethyl-1H-pyrrole-2-carbaldehyde] | – | 10 to 100 nM
CC(=O)Cc1cc([C@]2(c3cccc(-c4cccnc4F)c3)N=C(N)N(C)C2=O)cn1CCCF [Example 248, (5S)-2-Amino-5-[1-(3-fluoropropyl)-5-(2-oxopropyl)-1H-pyrrol-3-yl]-5-[3-(2-fluoropyridin-3-yl)phenyl]-3-methyl-3,5-dihydro-4H-imidazol-4-one] | – | 10 to 100 nM
